Data as given in ChEMBL document CHEMBL4480416, “Inducing Secondary Metabolite Production by Co-culture of the Endophytic Fungus Phoma sp. and the Symbiotic Fungus Armillaria sp” (2019).
In brackets after ≈: the same amount, converted by molar mass. Activity calls are given as the source filed them. The rule behind the calls is not given here.

How the values were obtained:
HL-60 = assay: Cytotoxicity against human HL60 cells assessed as reduction in cell viability at 40 uM after 48 hrs by MTS assay; assay type: functional, cell-based
SMMC-7721 = assay: Cytotoxicity against human SMMC7721 cells assessed as reduction in cell viability at 40 uM after 48 hrs by MTS assay; assay type: functional, cell-based
A549 = assay: Cytotoxicity against human A549 cells assessed as reduction in cell viability at 40 uM after 48 hrs by MTS assay; assay type: functional, cell-based
MCF7 = assay: Cytotoxicity against human MCF7 cells assessed as reduction in cell viability at 40 uM after 48 hrs by MTS assay; assay type: functional, cell-based
SW480 = assay: Cytotoxicity against human SW480 cells assessed as reduction in cell viability at 40 uM after 48 hrs by MTS assay; assay type: functional, cell-based
Bacillus subtilis = assay: Antimicrobial activity against Bacillus subtilis at 0.5 to 256 ug/ml after 24 hrs by two-fold serial micro dilution method; assay type: functional
Escherichia coli = assay: Antimicrobial activity against Escherichia coli at 0.5 to 256 ug/ml after 24 hrs by two-fold serial micro dilution method; assay type: functional
Staphylococcus aureus = assay: Antimicrobial activity against Staphylococcus aureus at 0.5 to 256 ug/ml after 24 hrs by two-fold serial micro dilution method; assay type: functional
Candida albicans = assay: Antifungal activity against Candida albicans at 0.5 to 256 ug/ml after 4 days by two-fold serial micro dilution method; assay type: functional, organism-based

Compound	Activity (HL-60)	Activity (SMMC-7721)	Activity (A549)	Activity (MCF7)	Activity (SW480)	Activity (Bacillus subtilis)	Activity (Escherichia coli)	Activity (Staphylococcus aureus)	Activity (Candida albicans)	MIC (Candida albicans) [µg/mL]	MIC (Bacillus subtilis) [µg/mL]	MIC (Escherichia coli) [µg/mL]	MIC (Staphylococcus aureus) [µg/mL]
CCC[C@@H](O)[C@@H]1Oc2ccccc2[C@@H]1O	inactive	inactive	inactive	inactive	inactive	inactive	inactive	inactive	inactive	–	–	–	–
CCC[C@H](O)C/C=C/[C@@H](O)CCCC(=O)OC[C@@H](O)CO	inactive	inactive	inactive	inactive	inactive	inactive	inactive	inactive	inactive	–	–	–	–
CCC[C@H](O)C/C=C/[C@@H](O)CCCC(=O)OC	inactive	inactive	inactive	inactive	inactive	inactive	inactive	inactive	inactive	–	–	–	–
CCCC[C@@H](O)[C@H](O)c1ccccc1O	inactive	inactive	inactive	inactive	inactive	inactive	inactive	inactive	inactive	–	–	–	–
CCC[C@H](O)C/C=C/[C@@H](O)CCCC(=O)OCCCCCNC(C)=O	inactive	inactive	inactive	inactive	inactive	inactive	inactive	inactive	inactive	–	–	–	–
NYSTATIN	–	–	–	–	–	–	–	–	–	4	–	–	–
NC[C@H]1O[C@H](O[C@H]2[C@H](O)[C@@H](O[C@H]3O[C@H](CO)[C@@H](O)[C@H](N)[C@H]3O)[C@H](N)C[C@@H]2N)[C@H](O)[C@@H](O)[C@@H]1O [KANAMYCIN]	–	–	–	–	–	–	–	–	–	–	4 (≈ 8.26 µM)	8 (≈ 16.5 µM)	4 (≈ 8.26 µM)
